From patent US8648201B2, “Aminopyridine derivatives for treating tumors and inflammatory diseases” (MERCK PATENT GmbH, priority 2009, dated 2014) come the findings set out here.

SMILES strings stand for the structures.

One test has as its target T1, PDK1 (Homo sapiens, UniProt O15530).
T1 construct: His6 (N)
T1 sequence (O15530 51-556 limits assumed): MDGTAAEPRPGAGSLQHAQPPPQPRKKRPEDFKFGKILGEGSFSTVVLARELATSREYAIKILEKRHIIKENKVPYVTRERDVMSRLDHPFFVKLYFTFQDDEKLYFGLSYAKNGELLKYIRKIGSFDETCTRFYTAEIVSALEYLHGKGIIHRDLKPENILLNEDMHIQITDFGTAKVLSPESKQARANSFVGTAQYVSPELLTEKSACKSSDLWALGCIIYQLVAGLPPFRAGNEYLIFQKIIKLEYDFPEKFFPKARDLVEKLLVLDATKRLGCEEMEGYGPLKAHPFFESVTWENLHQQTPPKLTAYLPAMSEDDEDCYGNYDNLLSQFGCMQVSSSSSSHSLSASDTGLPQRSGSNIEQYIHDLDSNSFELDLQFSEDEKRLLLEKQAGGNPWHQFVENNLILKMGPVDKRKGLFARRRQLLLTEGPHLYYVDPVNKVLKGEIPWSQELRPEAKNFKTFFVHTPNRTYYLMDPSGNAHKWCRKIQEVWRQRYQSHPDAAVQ
As to the kind of experiment: Test for the inhibition of PDK1 (flashplate, 33P-ATP). In kind it is biochemical. The conditions noted are these: enzyme. The method in brief:
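His6-PDK1(1-50) (3.4 nM) incubated with biotinylated peptide substrate (400 nM), 4 μM ATP plus 33P-ATP and compound, 60 min at 30 °C. Incorporated radioactivity counted; blank with 100 nM staurosporine subtracted, activity as % of compound-free control. IC50 from dose series.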
What is called IC50 is the concentration at which inhibition is half-maximal. Lower therefore signals higher potency. Compound `COc1ccc2nc(-c3cc(-c4ccsc4)cnc3N)[nH]c2c1` [Compound A144, 3-(6-methoxy-1H-benzimidazol-2-yl)-5-thiophen-3-ylpyridin-2-ylamine] returned an IC50 of 1 to 100 nM.
Still for that read-out and setting: with `Cn1cc(-c2cnc(N)c(-c3nc4ccc(C(=O)NCCc5ccc(F)c(F)c5)cc4[nH]3)c2)cn1` [Compound A128, N-[2-(3,4-difluorophenyl)ethyl]-2-[2-amino-5-(1-methyl-1H-pyrazol-4-yl)pyridin-3-yl]-3H-benzimidazole-5-carboxamide] the figure was 1 to 100 nM; with `CC1CC(=O)NN=C1c1ccc2nc(-c3cc(-c4cnn(C)c4)cnc3N)[nH]c2c1` (racemic) [Compound A1, 6-{2-[2-amino-5-(1-methyl-1H-pyrazol-4-yl)pyridin-3-yl]-3H-benzimidazol-5-yl}-5-methyl-4,5-dihydro-2H-pyridazin-3-one], 1 to 100 nM.
On to `COc1ccc2nc(-c3cc(-c4cnn(C5CCNCC5)c4)cnc3N)[nH]c2c1` [Compound A92, 3-(6-Methoxy-1H-benzimidazol-2-yl)-5-(1-piperidin-4-yl-1H-pyrazol-4-yl)pyridin-2-ylamine], for which the IC50 was 1 to 100 nM.
Same read-out and setting: with `COc1ccc2nc(-c3cc(-c4cnn(C)c4)cnc3N)[nH]c2c1` [Compound A43] the figure was 1 to 100 nM; with `Cn1cc(-c2cnc(N)c(-c3nc4cccc(CO)c4[nH]3)c2)cn1` [Compound A52], 1 to 100 nM.
`COc1ccc2nc(-c3cc(-c4ccc(C(=O)NC5CCN(C)CC5)s4)cnc3N)[nH]c2c1` [Compound A133, N-(1-Methylpiperidin-4-yl)-5-[6-amino-5-(6-methoxy-1H-benzimidazol-2-yl)pyridin-3-yl]thiophene-2-carboxamide] registered an IC50 of 1 to 100 nM.

A further test has as its target T2, IRAK-4 (Homo sapiens, UniProt Q9NWZ3).
T2 construct: His6 (N); Dr.Jaekel
T2 sequence (Q9NWZ3 1-460): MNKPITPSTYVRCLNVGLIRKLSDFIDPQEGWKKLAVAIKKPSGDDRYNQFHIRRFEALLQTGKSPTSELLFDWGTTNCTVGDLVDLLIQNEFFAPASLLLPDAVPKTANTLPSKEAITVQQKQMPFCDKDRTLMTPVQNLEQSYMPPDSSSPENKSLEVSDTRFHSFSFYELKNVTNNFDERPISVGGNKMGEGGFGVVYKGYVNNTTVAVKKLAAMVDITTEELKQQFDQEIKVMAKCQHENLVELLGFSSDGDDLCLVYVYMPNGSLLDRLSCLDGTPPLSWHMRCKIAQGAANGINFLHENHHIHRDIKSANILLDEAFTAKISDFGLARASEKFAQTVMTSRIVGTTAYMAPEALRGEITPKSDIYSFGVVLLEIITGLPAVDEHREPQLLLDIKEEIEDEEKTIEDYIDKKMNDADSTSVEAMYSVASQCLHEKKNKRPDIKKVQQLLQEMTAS
Put plainly: IC50 IRAK-4 (cell). In kind it is cell-based.
Conditions: not given
Consider `COc1ccc2nc(-c3cc(-c4cnn(C5CCNCC5)c4)cnc3N)[nH]c2c1` [Compound A92, 3-(6-Methoxy-1H-benzimidazol-2-yl)-5-(1-piperidin-4-yl-1H-pyrazol-4-yl)pyridin-2-ylamine], for which the IC50 fell in the range of 100 to 10000 nM.
